Results: publication PMC4599001, “Selective Irreversible Inhibition of Neuronal and Inducible Nitric-oxide Synthase in the Combined Presence of Hydrogen Sulfide and Nitric Oxide” (The Journal of Biological Chemistry, 2015)
Several values for one entry are separate records, joined by “and”; a condition that tells them apart may be missing. Identical values can stand only once. Entries after “also recorded” stand apart in the source; their conditions may differ. Like-named read-outs stand apart in the source and are kept apart here. Blank lines part the entries; values can stand above or below the compound they belong to.

How the values were obtained:
mouse macrophage iNOS = target: T1, mouse macrophage iNOS (Mus musculus, UniProt P29477); type: biochemical; settings: pH 7.4; read-out: IC50, citrulline formation by iNOS
T1 construct: made in house; host or cells: Escherichia coli

eNOS [1] = target: T2, eNOS (Homo sapiens, UniProt P29474); type: biochemical; settings: for ActH2S, specific activity (citrulline formation) / Inhibition / vNO^H2S, NO formation rate: 0.5 mM H2S
Target sequence in this assay (P29474 2-1203): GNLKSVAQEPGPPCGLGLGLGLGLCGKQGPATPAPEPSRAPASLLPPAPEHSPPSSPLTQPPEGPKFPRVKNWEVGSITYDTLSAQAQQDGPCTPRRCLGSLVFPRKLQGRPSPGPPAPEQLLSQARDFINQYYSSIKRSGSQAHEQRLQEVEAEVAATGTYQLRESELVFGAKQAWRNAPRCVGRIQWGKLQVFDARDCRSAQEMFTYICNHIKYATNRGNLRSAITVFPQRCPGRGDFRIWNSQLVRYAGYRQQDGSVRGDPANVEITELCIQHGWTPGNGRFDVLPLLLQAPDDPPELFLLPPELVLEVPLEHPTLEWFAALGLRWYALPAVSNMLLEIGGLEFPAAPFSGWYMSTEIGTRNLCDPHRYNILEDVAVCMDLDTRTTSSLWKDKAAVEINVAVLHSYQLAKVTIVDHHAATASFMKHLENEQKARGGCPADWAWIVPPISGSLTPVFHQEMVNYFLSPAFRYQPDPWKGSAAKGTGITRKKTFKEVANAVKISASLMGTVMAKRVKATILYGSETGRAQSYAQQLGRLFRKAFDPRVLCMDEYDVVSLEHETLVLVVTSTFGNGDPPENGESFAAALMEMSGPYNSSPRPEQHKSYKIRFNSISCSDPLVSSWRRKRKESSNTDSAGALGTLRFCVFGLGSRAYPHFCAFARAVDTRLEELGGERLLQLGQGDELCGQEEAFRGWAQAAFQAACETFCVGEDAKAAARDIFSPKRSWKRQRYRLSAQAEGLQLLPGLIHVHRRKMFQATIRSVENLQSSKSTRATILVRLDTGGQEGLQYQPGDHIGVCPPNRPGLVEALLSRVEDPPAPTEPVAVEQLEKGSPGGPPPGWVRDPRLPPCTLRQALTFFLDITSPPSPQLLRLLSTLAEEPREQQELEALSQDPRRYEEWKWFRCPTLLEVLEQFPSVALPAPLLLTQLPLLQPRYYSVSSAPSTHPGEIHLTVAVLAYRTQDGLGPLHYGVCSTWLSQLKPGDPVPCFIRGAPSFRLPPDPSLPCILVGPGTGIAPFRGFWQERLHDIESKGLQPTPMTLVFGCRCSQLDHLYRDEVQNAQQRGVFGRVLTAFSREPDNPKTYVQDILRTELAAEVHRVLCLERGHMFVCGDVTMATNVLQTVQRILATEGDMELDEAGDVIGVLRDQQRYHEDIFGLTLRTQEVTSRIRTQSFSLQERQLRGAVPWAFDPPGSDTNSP

nNOS [2] = target: T3, nNOS (Homo sapiens, UniProt P29475); type: binding
nNOS [3] = target: T3, nNOS; type: biochemical
nNOS [4] = target: T3, nNOS
eNOS [5] = target: T2, eNOS
nNOS [6] = target: T3, nNOS; settings: for ActH2S, specific activity (citrulline formation) / Inhibition / vNO^H2S, NO formation rate: 0.5 mM H2S
nNOS [7] = target: T3, nNOS; assay: NADPH oxidation by nNOS (340 nm); type: biochemical
[8] = cited from earlier work; for t1/2 of NO release: ref 35
[9] = 37 °C; cited from earlier work
eNOS [10] = target: T2, eNOS; assay: NADPH oxidation by eNOS (340 nm); type: biochemical; settings: +Arg, +BH4, without Na2S
nNOS [11] = settings: read-out: IC50, inhibition of nNOS, cited from earlier work

T3 sequence (P29475 whole entry): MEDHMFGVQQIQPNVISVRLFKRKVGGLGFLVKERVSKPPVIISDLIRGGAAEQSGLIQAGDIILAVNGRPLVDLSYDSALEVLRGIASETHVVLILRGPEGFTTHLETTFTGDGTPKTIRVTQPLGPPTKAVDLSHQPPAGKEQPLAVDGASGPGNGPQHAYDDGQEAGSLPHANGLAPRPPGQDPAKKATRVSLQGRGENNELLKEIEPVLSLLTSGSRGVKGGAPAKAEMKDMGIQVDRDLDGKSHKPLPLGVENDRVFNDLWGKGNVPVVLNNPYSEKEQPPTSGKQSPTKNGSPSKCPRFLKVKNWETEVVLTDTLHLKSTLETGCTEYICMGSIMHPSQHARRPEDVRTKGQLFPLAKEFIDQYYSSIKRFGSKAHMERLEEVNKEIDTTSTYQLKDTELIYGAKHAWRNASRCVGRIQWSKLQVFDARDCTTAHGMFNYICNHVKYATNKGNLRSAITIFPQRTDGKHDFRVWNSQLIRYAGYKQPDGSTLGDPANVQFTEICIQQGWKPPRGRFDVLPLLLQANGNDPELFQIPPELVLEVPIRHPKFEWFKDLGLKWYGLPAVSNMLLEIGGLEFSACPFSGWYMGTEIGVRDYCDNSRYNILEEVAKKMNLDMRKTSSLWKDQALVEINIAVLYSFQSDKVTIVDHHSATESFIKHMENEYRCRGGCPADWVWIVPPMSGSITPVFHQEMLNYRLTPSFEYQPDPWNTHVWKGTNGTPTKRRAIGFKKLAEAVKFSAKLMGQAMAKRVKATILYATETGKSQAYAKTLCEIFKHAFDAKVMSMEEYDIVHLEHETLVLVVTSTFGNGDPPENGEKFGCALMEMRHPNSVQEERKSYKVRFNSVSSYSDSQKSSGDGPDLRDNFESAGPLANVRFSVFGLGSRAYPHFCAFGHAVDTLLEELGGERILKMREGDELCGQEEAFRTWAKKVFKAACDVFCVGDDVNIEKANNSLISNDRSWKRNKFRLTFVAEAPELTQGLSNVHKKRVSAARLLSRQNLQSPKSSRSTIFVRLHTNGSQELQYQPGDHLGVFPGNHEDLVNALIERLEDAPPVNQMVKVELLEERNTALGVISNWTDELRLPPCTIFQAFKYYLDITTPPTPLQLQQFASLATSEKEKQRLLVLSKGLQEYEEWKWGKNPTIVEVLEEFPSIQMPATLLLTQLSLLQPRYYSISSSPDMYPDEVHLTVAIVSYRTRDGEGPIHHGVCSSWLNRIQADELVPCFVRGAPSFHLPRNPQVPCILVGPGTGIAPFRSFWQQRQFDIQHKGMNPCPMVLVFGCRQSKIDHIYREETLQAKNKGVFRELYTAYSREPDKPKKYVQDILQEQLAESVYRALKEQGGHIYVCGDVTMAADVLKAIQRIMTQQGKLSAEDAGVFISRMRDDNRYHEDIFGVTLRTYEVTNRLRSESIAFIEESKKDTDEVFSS
T1 sequence (P29477 whole entry): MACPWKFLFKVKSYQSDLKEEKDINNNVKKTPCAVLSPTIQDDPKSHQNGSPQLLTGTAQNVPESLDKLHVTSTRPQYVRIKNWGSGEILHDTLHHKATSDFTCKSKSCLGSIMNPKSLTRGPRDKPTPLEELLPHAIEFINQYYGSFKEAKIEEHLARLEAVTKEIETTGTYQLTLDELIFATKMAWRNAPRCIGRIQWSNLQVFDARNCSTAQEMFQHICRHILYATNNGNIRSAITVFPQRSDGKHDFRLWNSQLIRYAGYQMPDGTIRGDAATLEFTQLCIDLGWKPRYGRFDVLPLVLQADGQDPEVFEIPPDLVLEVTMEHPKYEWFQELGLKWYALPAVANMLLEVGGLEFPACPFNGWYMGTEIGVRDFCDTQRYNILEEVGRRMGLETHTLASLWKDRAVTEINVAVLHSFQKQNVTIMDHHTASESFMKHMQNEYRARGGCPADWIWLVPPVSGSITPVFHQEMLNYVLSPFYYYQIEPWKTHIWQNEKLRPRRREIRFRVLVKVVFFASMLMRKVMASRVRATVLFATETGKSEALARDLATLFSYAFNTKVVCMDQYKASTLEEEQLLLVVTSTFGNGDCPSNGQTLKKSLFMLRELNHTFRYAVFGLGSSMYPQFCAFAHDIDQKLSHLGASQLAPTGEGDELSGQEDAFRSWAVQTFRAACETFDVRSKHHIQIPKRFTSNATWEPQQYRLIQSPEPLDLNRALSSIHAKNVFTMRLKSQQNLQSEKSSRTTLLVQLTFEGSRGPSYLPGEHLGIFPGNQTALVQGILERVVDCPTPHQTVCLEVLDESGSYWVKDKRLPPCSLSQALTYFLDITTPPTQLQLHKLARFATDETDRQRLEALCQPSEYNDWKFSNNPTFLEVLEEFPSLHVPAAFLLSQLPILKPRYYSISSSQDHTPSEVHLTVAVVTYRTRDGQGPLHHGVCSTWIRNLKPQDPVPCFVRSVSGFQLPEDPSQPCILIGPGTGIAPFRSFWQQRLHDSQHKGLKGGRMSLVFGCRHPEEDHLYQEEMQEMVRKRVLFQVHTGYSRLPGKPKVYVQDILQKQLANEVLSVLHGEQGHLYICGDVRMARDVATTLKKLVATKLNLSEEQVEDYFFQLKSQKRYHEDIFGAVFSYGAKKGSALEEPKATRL

SMILES: [Na+].[Na+].[S-2] [Na2S, sodium sulfide]
IC50 (mouse macrophage iNOS): ~79 µM and 79 µM
Effect on eNOS activity (eNOS [1]): hardly affected
Effect on citrulline formation by eNOS (eNOS [1]; pH 7.4): hardly affected at all; also recorded: only marginally affected
Extent of spectral transition to thiol complex (nNOS [2]): approximately 50%
Decrease of nNOS activity after dilution (nNOS [3]): approximately 70%
Reversal of inhibition by thiols (nNOS [3]): none of these thiols restored the activity
nNOS activity after dilution (nNOS [3]): not affected
Dimeric enzyme, gel filtration (nNOS [4]): ~55%
Dimer/monomer ratio of eNOS (eNOS [5]): not affected by Na2S at all
Effect of thiols on IC50 of inhibition of citrulline formation (nNOS [6]): none of these thiols had any impact on IC50 values
nNOS activity blocked (nNOS [6]): ~90%
pKa from plot of IC50 against pH (nNOS [6]): 7.310 ± 0.014
IC50 (nNOS [6]; read-out: IC50, citrulline formation by nNOS): 23 µM
IC50 (nNOS [6]; read-out: IC50, citrulline formation by nNOS, pH 6): ~15 µM and 15 µM
IC50 (nNOS [6]; read-out: IC50, citrulline formation by nNOS, pH 7.4): ~24 µM and 24 µM and 31 µM
IC50 (nNOS [6]; read-out: IC50, citrulline formation by nNOS, pH 8): ~83 µM and 83 µM

IC50 (nNOS [7]; absence of BH4, with Na2S, after 10 min, read-out: Apparent IC50, potentiation of the inhibitory effect of Na2S on NADPH oxidation by nNOS): 106 µM
SMILES: NCCCNCCCCN(CCCN)/[N+]([O-])=N/O [SPER/NO, (Z)-1-[N-[3-aminopropyl]-N-[4-(3-aminopropylammonio)butyl]amino]diazen-1-ium-1,2-diolate]
t1/2 of NO release [8]: ~30 min

SMILES: S [H2S, hydrogen sulfide]
ActH2S, specific activity (citrulline formation) (eNOS [1]; eNOS 2.0 μg/ml): 98 ± 12 nmol/mg/min
Inhibition (eNOS [1]; eNOS 2.0 μg/ml): 24 ± 16%
vNO^H2S, NO formation rate (eNOS [1]; eNOS 2.0 μg/ml): 0.20 ± 0.02 µM/min
ActH2S, specific activity (citrulline formation) (eNOS [1]; eNOS 10.0 μg/ml): 134 ± 16 nmol/mg/min
Inhibition (eNOS [1]; eNOS 10.0 μg/ml): 16 ± 12%
vNO^H2S, NO formation rate (eNOS [1]; eNOS 10.0 μg/ml): 1.34 ± 0.16 µM/min
ActH2S, specific activity (citrulline formation) (eNOS [1]; eNOS 15.0 μg/ml): 146 ± 19 nmol/mg/min
Inhibition (eNOS [1]; eNOS 15.0 μg/ml): 5 ± 14%
vNO^H2S, NO formation rate (eNOS [1]; eNOS 15.0 μg/ml): 2.2 ± 0.3 µM/min
ActH2S, specific activity (citrulline formation) (eNOS [1]; eNOS 30.0 μg/ml): 136 ± 38 nmol/mg/min
Inhibition (eNOS [1]; eNOS 30.0 μg/ml): −6 ± 35%
vNO^H2S, NO formation rate (eNOS [1]; eNOS 30.0 μg/ml): 4.1 ± 1.1 µM/min
IC50 (nNOS [7]; Arg and/or BH4 omitted, no NO (span over conditions), read-out: IC50, reversible inhibition of nNOS by H2S alone): 100 to 600 µM
Decrease of nNOS activity after dilution (nNOS [3]; preincubation with 0.5 mM Na2S under turnover conditions (+CaM), 150-fold dilution): ~70%
nNOS activity after dilution (nNOS [3]; preincubation with 0.5 mM Na2S, CaM omitted during preincubation): activity was not affected
ActH2S, specific activity (citrulline formation) (nNOS [6]; nNOS 0.5 μg/ml): 53 ± 26 nmol/mg/min
Inhibition (nNOS [6]; nNOS 0.5 μg/ml): 86 ± 7%
vNO^H2S, NO formation rate (nNOS [6]; nNOS 0.5 μg/ml): 0.026 ± 0.013 µM/min
ActH2S, specific activity (citrulline formation) (nNOS [6]; nNOS 2.0 μg/ml): 31 ± 8 nmol/mg/min
Inhibition (nNOS [6]; nNOS 2.0 μg/ml): 92 ± 2%
vNO^H2S, NO formation rate (nNOS [6]; nNOS 2.0 μg/ml): 0.062 ± 0.016 µM/min
ActH2S, specific activity (citrulline formation) (nNOS [6]; nNOS 10.0 μg/ml): 24 ± 2 nmol/mg/min
Inhibition (nNOS [6]; nNOS 10.0 μg/ml): 92 ± 1%
vNO^H2S, NO formation rate (nNOS [6]; nNOS 10.0 μg/ml): 0.24 ± 0.02 µM/min
ActH2S, specific activity (citrulline formation) (nNOS [6]; nNOS 15.0 μg/ml): 29 ± 2 nmol/mg/min
Inhibition (nNOS [6]; nNOS 15.0 μg/ml): 91 ± 1%
vNO^H2S, NO formation rate (nNOS [6]; nNOS 15.0 μg/ml): 0.44 ± 0.03 µM/min
pKa of the H2S/HS− equilibrium [9]: 6.76

IC50 (nNOS [7]; +Arg, −BH4, in the absence of Na2S, read-out: IC50, NADPH oxidation by nNOS): ~80 µM
IC50 (nNOS [7]; +Arg, −BH4, in the presence of 10 μM Na2S, read-out: IC50, NADPH oxidation by nNOS): ~10 µM
IC50 (eNOS [10]): 100 µM
SMILES: O=C([O-])[C@@H]1CCCN1[N+]([O-])=NO.O=C([O-])[C@@H]1CCCN1[N+]([O-])=NO.[Na+].[Na+] [PROLI/NO, 1-(hydroxy-NNO-azoxy)-L-proline, disodium salt]
t1/2 of NO release [8]: 0.017 to 0.033 min

SMILES: [Na+].[Na+].[O-][N+]([O-])=NO [Angeli's salt, disodium diazen-1-ium-1,2,2-triolate]
Reversal of inhibition by thiols (nNOS [6]; 10 mM GSH or 2 mM DTT present): completely reversed in the presence of thiols
IC50 (nNOS [6]; read-out: IC50, citrulline formation by nNOS, Angeli's salt as HNO donor, 50 mM TEA pH 7.4, 10 min, 37 °C): 190 µM

SMILES: O[C@@H](CS)[C@@H](O)CS [DTT]
IC50 (nNOS [11]; ref 16): 13200 µM
IC50 (nNOS [11]; ref 27): 160 µM

SMILES: C1COCCN1.COc1ccc(P(=S)(S)N2CCOCC2)cc1 (centres unmarked) [GYY4137]
IC50 (nNOS [6]; read-out: Apparent IC50, citrulline formation by nNOS): 2200 µM
t½ of H2S release ([8]; ref 34): ~415 min
